As usually defined, the IC50 is the concentration at which inhibition is half-maximal.

For this assay, the system named is PBMCs. The assay can be described thus: LPS-induced IL-8 release in PBMC cells. The class given is cell-based. The following applies: Homo sapiens, LPS-stimulated PBMCs, read-out: IC50 Values for Inhibition of Cytokine Release PBMCs IL-8. On the procedure: Peripheral blood mononuclear cells (PBMCs) from healthy subjects are separated from whole blood using a density gradient (Lymphoprep, Axis-Shield Healthcare). The PBMCs are seeded in 96 well plates and treated with compounds at the desired concentration for 2 hours before addition of 1 ng/mL LPS (Escherichia Coli 0111:B4 from Sigma Aldrich) for 24 hours under normal tissue culture conditions (37° C., 5% CO2). The supernatant is harvested for determination of IL-8 and TNFα concentrations by sandwich ELISA (Duo-set, R&D systems) and read on the fluorescence microplate reader (Varioskan® Flash, ThermoFisher Scientific).

In the case of `COc1c(NC(=O)c2ccc(C)c(-c3ccc4nc(Nc5cccc(OS(C)(=O)=O)c5)ncc4c3)c2)cc(C(C)(C)C)cc1NS(C)(=O)=O` [14(a), 3-((6-(5-((5-(tert-Butyl)-2-methoxy-3-(methylsulfonamido)phenyl)carbamoyl)-2-methylphenyl)quinazolin-2-yl)amino)phenyl methanesulfonate], the half-maximal inhibitory concentration (IC50) was 31.1 nM.

As for `COc1cc(Nc2ncc3cc(-c4cc(C(=O)Nc5cc(C(C)(C)C)cc(NS(C)(=O)=O)c5OC)ccc4C)ccc3n2)ccc1C(=O)NCCC1CCN(C)CC1` [14(aa), 4-((6-(5-((5-(tert-Butyl)-2-methoxy-3-(methylsulfonamido)phenyl)carbamoyl)-2-methyl-phenyl)quinazolin-2-yl)amino)-2-methoxy-N-(2-(1-methylpiperidin-4-yl)ethyl)benzamide], the 50% inhibitory concentration (IC50) was determined as 9.5 nM. The same measure for `COc1cc(Nc2ncc3cc(-c4cc(C(=O)Nc5cc(C(C)(C)C)cc(NS(C)(=O)=O)c5OC)ccc4C)ccc3n2)ccc1C(=O)NCCCN1CCCOCC1` [14(ab), N-(3-(1,4-Oxazepan-4-yl)propyl)-4-((6-(5-((5-(tert-butyl)-2-methoxy-3-(methyl-sulfonamido)phenyl)carbamoyl)-2-methylphenyl)quinazolin-2-yl)amino)-2-methoxybenzamide]: 5.4 nM; for `COc1cc(Nc2ncc3cc(-c4cc(C(=O)Nc5cc(C(C)(C)C)cc(NS(C)(=O)=O)c5OC)ccc4C)ccc3n2)ccc1C(=O)NC1CCN(C)CC1` [14(ac), 4-((6-(5-((5-(tert-Butyl)-2-methoxy-3-(methylsulfonamido)phenyl)carbamoyl)-2-methylphenyl)quinazolin-2-yl)amino)-2-methoxy-N-(1-methylpiperidin-4-yl)benzamide]: 5.1 nM; for `COc1cc(Nc2ncc3cc(-c4cc(C(=O)Nc5cc(C(C)(C)C)cc(NS(C)(=O)=O)c5OC)ccc4C)ccc3n2)ccc1C(=O)NCCS(C)(=O)=O` [14(ad), 4-((6-(5-((5-(tert-Butyl)-2-methoxy-3-(methylsulfonamido)phenyl)carbamoyl)-2-methylphenyl)quinazolin-2-yl)amino)-2-methoxy-N-(2-(methylsulfonyl)ethyl)benzamide]: 7 nM. Under `COc1cc(Nc2ncc3cc(-c4cc(C(=O)Nc5cc(C(C)(C)C)cc(NS(C)(=O)=O)c5OC)ccc4C)ccc3n2)ccc1C(=O)NCCn1ccnc1C` [14(ae), 4-((6-(5-((5-(tert-Butyl)-2-methoxy-3-(methylsulfonamido)phenyl)carbamoyl)-2-methyl-phenyl)quinazolin-2-yl)amino)-2-methoxy-N-(2-(2-methyl-1H-imidazol-1-yl)ethyl)benzamide] stands 6.5 nM; under `COc1cc(Nc2ncc3cc(-c4cc(C(=O)Nc5cc(C(C)(C)C)cc(NS(C)(=O)=O)c5OC)ccc4C)ccc3n2)ccc1C(=O)NCCc1c[nH]cn1` [14(af), N-(2-(1H-Imidazol-4-yl)ethyl)-4-((6-(5-((5-(tert-butyl)-2-methoxy-3-(methylsulfonamido)-phenyl)carbamoyl)-2-methylphenyl)quinazolin-2-yl)amino)-2-methoxybenzamide], 13.2 nM; under `COc1cc(Nc2ncc3cc(-c4cc(C(=O)Nc5cc(C(C)(C)C)cc(NS(C)(=O)=O)c5OC)ccc4C)ccc3n2)ccc1C(=O)NCCc1cccnc1` [14(ag), 4-((6-(5-((5-(tert-Butyl)-2-methoxy-3-(methylsulfonamido)phenyl)carbamoyl)-2-methylphenyl)quinazolin-2-yl)amino)-2-methoxy-N-(2-(pyridin-3-yl)ethyl)benzamide], 11.6 nM.

Turning to `COc1cc(Nc2ncc3cc(-c4cc(C(=O)Nc5cc(C(C)(C)C)cc(NS(C)(=O)=O)c5OC)ccc4C)ccc3n2)ccc1C(=O)NCCN1CCC(O)CC1` [14(ah), 4-((6-(5-((5-(tert-Butyl)-2-methoxy-3-(methylsulfonamido)phenyl)carbamoyl)-2-methylphenyl)quinazolin-2-yl)amino)-N-(2-(4-hydroxypiperidin-1-yl)ethyl)-2-methoxybenzamide], the IC50 worked out at 8 nM.

As to `COc1cc(Nc2ncc3cc(-c4cc(C(=O)Nc5cc(C(C)(C)C)cc(NS(C)(=O)=O)c5OC)ccc4C)ccc3n2)ccc1C(=O)NCC1CCN(C)CC1` [14(ai), 4-((6-(5-((5-(tert-Butyl)-2-methoxy-3-(methylsulfonamido)phenyl)carbamoyl)-2-methylphenyl)quinazolin-2-yl)amino)-2-methoxy-N-((1-methylpiperidin-4-yl)methyl)benzamide], the IC50 is 7.9 nM. Consider `COc1cc(Nc2ncc3cc(-c4cc(C(=O)Nc5cc(C(C)(C)C)cc(NS(C)(=O)=O)c5OC)ccc4C)ccc3n2)ccc1C(=O)NCCC1(O)CCN(C)CC1` [14(aj), 4-((6-(5-((5-(tert-Butyl)-2-methoxy-3-(methylsulfonamido)phenyl)carbamoyl)-2-methylphenyl)quinazolin-2-yl)amino)-N-(2-(4-hydroxy-1-methylpiperidin-4-yl)ethyl)-2-methoxybenzamide], for which the IC50 stood at 9.3 nM. With `COc1cc(Nc2ncc3cc(-c4cc(C(=O)Nc5cc(C(C)(C)C)cc(NS(C)(=O)=O)c5OC)ccc4C)ccc3n2)ccc1C(=O)NCCN1CCCC1` [14(ak), 4-((6-(5-((5-(tert-Butyl)-2-methoxy-3-(methylsulfonamido)phenyl)carbamoyl)-2-methylphenyl)quinazolin-2-yl)amino)-2-methoxy-N-(2-(pyrrolidin-1-yl)ethyl)benzamide], the IC50 amounted to 14.8 nM. In the case of `COc1cc(Nc2ncc3cc(-c4cc(C(=O)Nc5cc(C(C)(C)C)cc(NS(C)(=O)=O)c5OC)ccc4C)ccc3n2)ccc1C(=O)NCCN1CCN(C)C(C)(C)C1` [14(al), 4-((6-(5-((5-(tert-Butyl)-2-methoxy-3-(methylsulfonamido)phenyl)carbamoyl)-2-methyl-phenyl)quinazolin-2-yl)amino)-2-methoxy-N-(2-(3,3,4-trimethylpiperazin-1-yl)ethyl)benzamide], the IC50 was found to be 8.3 nM. With `COc1cc(Nc2ncc3cc(-c4cc(C(=O)Nc5cc(C(C)(C)C)cc(NS(C)(=O)=O)c5OC)ccc4C)ccc3n2)ccc1C(=O)NCCN1CCOCC1` [14(am), 4-((6-(5-((5-(tert-Butyl)-2-methoxy-3-(methylsulfonamido)phenyl)carbamoyl)-2-methylphenyl)quinazolin-2-yl)amino)-2-methoxy-N-(2-morpholinoethyl)benzamide], the IC50 stood at 19.5 nM. The same measure for `COc1cc(Nc2ncc3cc(-c4cc(C(=O)Nc5cc(C(C)(C)C)cc(NS(C)(=O)=O)c5OC)ccc4C)ccc3n2)ccc1C(=O)NC1CCS(=O)(=O)CC1` [14(an), 4-((6-(5-((5-(tert-Butyl)-2-methoxy-3-(methylsulfonamido)phenyl)carbamoyl)-2-methylphenyl)quinazolin-2-yl)amino)-N-(1,1-dioxidotetrahydro-2H-thiopyran-4-yl)-2-methoxybenzamide]: 12.3 nM; for `COc1c(NC(=O)c2ccc(C)c(-c3ccc4nc(Nc5cc(C#N)cc(OCCN6CCOCC6)c5)ncc4c3)c2)cc(C(C)(C)C)cc1NS(C)(=O)=O` [14(b), N-(5-(tert-Butyl)-2-methoxy-3-(methylsulfonamido)phenyl)-3-(2-((3-cyano-5-(2-morpholinoethoxy)phenyl)amino)quinazolin-6-yl)-4-methylbenzamide]: 15.2 nM; for `COc1cc(Nc2ncc3cc(-c4cc(C(=O)Nc5cc(C(C)(C)C)cc(NS(C)(=O)=O)c5OC)ccc4C)ccc3n2)cc(S(=O)(=O)N(C)CCN2CCOCC2)c1` [14(c), N-(5-(tert-Butyl)-2-methoxy-3-(methylsulfonamido)phenyl)-3-(2-((3-methoxy-5-(N-methyl-N-(2-morpholinoethyl)sulfamoyl)phenyl)amino)quinazolin-6-yl)-4-methylbenzamide]: 18.6 nM. Consider `COc1c(NC(=O)c2ccc(C)c(-c3ccc4nc(Nc5cccc(C(=O)NCCN6CCOCC6)c5)ncc4c3)c2)cc(C(C)(C)C)cc1NS(C)(=O)=O` [14(d), N-(5-(tert-Butyl)-2-methoxy-3-(methylsulfonamido)phenyl)-4-methyl-3-(2-((3-((2-morpholinoethyl)carbamoyl)phenyl)amino)quinazolin-6-yl)benzamide], for which the IC50 was 8.3 nM. The same measure for `COc1cc(Nc2ncc3cc(-c4cc(C(=O)Nc5cc(C(C)(C)C)cc(NS(C)(=O)=O)c5OC)ccc4C)ccc3n2)cc(S(=O)(=O)N(C)CCCN2CCOCC2)c1` [14(e), N-(5-(tert-Butyl)-2-methoxy-3-(methylsulfonamido)phenyl)-3-(2-((3-methoxy-5-(N-methyl-N-(3-morpholinopropyl)sulfamoyl)phenyl)amino)quinazolin-6-yl)-4-methylbenzamide]: 20.6 nM. The same measure for `COCCOCCOCCOc1cc(C#N)cc(Nc2ncc3cc(-c4cc(C(=O)Nc5cc(C(C)(C)C)cc(NS(C)(=O)=O)c5OC)ccc4C)ccc3n2)c1` [14(f), N-(5-(tert-Butyl)-2-methoxy-3-(methylsulfonamido)phenyl)-3-(2-((3-cyano-5-(2-(2-(2-methoxyethoxy)ethoxy)ethoxy)phenyl)amino)quinazolin-6-yl)-4-methylbenzamide]: 10.4 nM; for `COc1c(NC(=O)c2ccc(C)c(-c3ccc4nc(Nc5cccc(P(C)(C)=O)c5)ncc4c3)c2)cc(C(C)(C)C)cc1NS(C)(=O)=O` [14(h), N-(5-(tert-Butyl)-2-methoxy-3-(methylsulfonamido)phenyl)-3-(2-((3-(dimethylphosphoryl)phenyl)amino)quinazolin-6-yl)-4-methylbenzamide]: 9.4 nM.

In the case of `COc1c(NC(=O)c2ccc(C)c(-c3ccc4nc(Nc5ccc(OS(C)(=O)=O)cc5)ncc4c3)c2)cc(C(C)(C)C)cc1NS(C)(=O)=O` [14(j), 4-((6-(5-((5-(tert-Butyl)-2-methoxy-3-(methylsulfonamido)phenyl)carbamoyl)-2-methylphenyl)quinazolin-2-yl)amino)phenyl methanesulfonate], the IC50 turned out to be 9.1 nM.

Source of the values: US20170209445A1, “KINASE INHIBITORS” (Respivert Limited, priority 2014, published 2017).
